Source: patent publication US20250332112A1, “IONIZABLE CATIONIC LIPIDS FOR LIPID NANOPARTICLES” (GENEVANT SCIENCES GMBH, priority 2022, published 2025)

Legend:
[1] = test system: luciferase activity in the liver; experiment: Luciferase activity in liver after intravenous luciferase mRNA LNP; assay type: in vivo; conditions: 0.5 mg/kg IV, 6 h post-IV administration, BALB/c mice (n = 4)
Protocol: Frozen aliquots of liver were thawed and homogenized in 1 mL of 1×CCLR (Cell Culture Lysis Reagent) using a FastPrep® homogenizer. The homogenate was then centrifuged at 16,000 RPM for 10 minutes at 4° C. Twenty (20) μL of the supernatant was loaded into a 96-well white plate and luminescence measured following addition of luciferase reagent (Promega Luciferase Assay System). Luciferase activity was determined by comparing luminescence of the homogenized samples to luciferase protein standards. To account for any quenching of luminescence by components in the liver homogenate, luciferase was added to the liver homogenates of untreated animals and the resulting luminescence measured. The resulting quench factor was applied to all samples to obtain the corrected luciferase activity, and normalized per unit mass of tissue analyzed.

[2] = Parent ionizable lipid remaining in liver at 6 h after luciferase mRNA LNP (LC-MS); assay type: in vivo; conditions: 6 h after IV 0.5 mg/kg Luciferase mRNA LNP
Protocol: Liver tissues were treated with PBS and homogenized with a FastPrep machine, 3 cycles of 5 m/s×15 s. Homogenates from the PBS-treated control animals was pooled and used for standard curve preparation. Samples were extracted into a deep well plate with 250 μL of an internal suitability standard. Plates were centrifuged for 15 min at 4° C. and 2000 rpm. Analysis was performed using an Agilent 6520 QTOF coupled to an Agilent 1290 UHPLC, using reverse-phase LC separation. Quantitation of the ionizable lipid was by MS/MS against a calibration curve spiked into appropriately matched blank matrix. Calibration used a similar class of synthetic lipid as internal standard.
At 6 h post-dose, some treatment groups reported lower levels of novel ionizable lipid in mouse liver compared to the benchmark (Tables 16-18).

[3] = Particle characteristics of LNPs containing luciferase mRNA and novel ionizable lipids; assay type: physicochemical; conditions: luciferase mRNA LNP 1.6:54.6:32.8:10.9
Protocol: The lipid solution contains 4 components: a PEG-conjugated lipid, an ionizable lipid, cholesterol, and a phospholipid (e.g., DSPC). Lipid stocks were prepared using the lipid identities and molar ratios as described, to achieve a total concentration of ˜7 mg/mL in 100% ethanol. Firefly luciferase mRNA (TriLink Biotechnologies, L-7202) or ornithine transcarbamylase (OTC) mRNA (TriLink Biotechnologies, custom designed) was diluted in acetate, pH 5 buffer and nuclease free water to achieve a target concentration of 0.366 mg/mL mRNA in 100 mM acetate, pH 5. Equal volumes of the lipid and nucleic acid solutions were blended at a flow rate of 400 mL/min through a T-connector, and diluted with ˜4 volumes of PBS, pH 7.4. Formulations were placed in Slide-A-Lyzer dialysis units (MWCO 10,000) and dialyzed overnight against 10 mM Tris, 500 mM NaCl, pH 8 buffer. Following dialysis, the formulations were concentrated to ˜0.6 mg/mL using VivaSpin concentrator units (MWCO 100,000) and dialyzed overnight against 5 mM Tris, 10% sucrose, pH 8 buffer. Formulations were filtered through a 0.2 μm syringe filter (PES membrane). Nucleic acid concentration was determined by the RiboGreen assay. Particle size and polydispersity were determined using a Malvern Nano Series Zetasizer.
LNP formulations containing novel ionizable lipids all produced stable particles with high encapsulation efficiency (Tables 1-7).

[4] = Table 16, female BALB/c mice (n = 4)
[5] = Table 18, female BALB/c mice (n = 4)

## CCCCC/C=C\CCCC(CCC/C=C\CCCCC)=NNC(=O)CC(CCCCCCCCC)N(CCCN(C)C)C(=O)C(CCCCCC)CCCCCCCC (stereo not drawn) [Compound 57, N-(3-(dimethylamino)propyl)-N-(1-(2-((6Z,15Z)-henicosa-6,15-dien-11-ylidene)hydrazineyl)-1-oxododecan-3-yl)-2-hexyldecanamide]
[1]; Table 10
  Luc Activity: 2.43E+06 pg/g liver
[2]; [4]
  Parent ionizable lipid remaining in liver, Average: 15.88 nmol/g liver
[3]; Table 3
  Final Product % EE: 80%
  Final Product PDI: 0.03
  Final Product Z-avg: 84 nm

## CCCCC/C=C\CCCN(CCC/C=C\CCCCC)NC(=O)CC(CCCCCCCCC)N(CCCN(C)C)C(=O)CCCCCCCCC (stereo not drawn) [Compound 54, N-(1-(2,2-di((Z)-Dec-4-en-1-yl)hydrazineyl)-1-oxododecan-3-yl)-N-(3-(dimethylamino)-propyl)decanamide]
[1]; Table 10
  Luc Activity: 3.28E+06 pg/g liver
[2]; [4]
  Parent ionizable lipid remaining in liver, Average: 17.78 nmol/g liver
[3]; Table 3
  Final Product % EE: 97%
  Final Product PDI: 0.05
  Final Product Z-avg: 82 nm

## CCCCCCCCCCCCCOC(=O)CCCCC(CCCCCCCCCC)N(CCN(C)C)C(=O)CCCCC(=O)OCC(CCCC)CCCCCC (stereo not drawn) [Compound 23, tridecyl 6-{6-[(2-butyloctyl)oxy]-N-[2-(dimethylamino)ethyl]-6-oxohexanamido}hexadecanoate]
[1]; Table 10
  Luc Activity: 4.44E+06 pg/g liver
[2]; [4]
  Parent ionizable lipid remaining in liver, Average: 31.85 nmol/g liver
[3]; Table 3
  Final Product % EE: 97%
  Final Product PDI: 0.06
  Final Product Z-avg: 69 nm

## CCCCCCCCCCC(CCCCCCCC(=O)OCCC(CCCCC)CCCCC)N(CCCCCCCC(=O)OCCC(CCCCC)CCCCC)C(=O)CCCCN(C)C (stereo not drawn) [Compound 73, 3-Pentyloctyl 9-(5-(dimethylamino)-N-(8-oxo-8-((3-pentyloctyl)oxy)octyl)-pentanamido)-nonadecanoate]
[1]; Table 14
  Luc Activity: 3.64E+07 pg/g liver
[2]; [5]
  Parent ionizable lipid remaining in liver, Average: 31.41 nmol/g liver
[3]; Table 7
  Final Product % EE: 99%
  Final Product PDI: 0.00
  Final Product Z-avg: 82 nm

## CCCCCCCCCCC(CCCCCC(=O)OCC(CCCCCC)CCCCCCCC)N(CCCCCCCCCC)C(=O)CCCN(C)C (stereo not drawn) [Compound 4, 2-Hexyldecyl 7-(N-decyl-4-(dimethylamino)butanamido)heptadecanoate]
[1]; Table 10
  Luc Activity: 7.84E+07 pg/g liver
[2]; [4]
  Parent ionizable lipid remaining in liver, Average: 18.97 nmol/g liver
[3]; Table 3
  Final Product % EE: 99%
  Final Product PDI: 0.03
  Final Product Z-avg: 82 nm

## CCCCCCCCCCN(C(=O)CCCN(C)C)C(CCCCCCCCC)CCCCCCC(F)(F)C(=O)OCCC(CCCCCCC)CCCCCCC (stereo not drawn) [Compound 18, 3-Heptyldecyl 9-(N-decyl-4-(dimethylamino)butanamido)-2,2-difluorooctadecanoate]
[1]; Table 13
  Luc Activity: 4.32E+07 pg/g liver
[2]; Table 17, female mice (n = 4)
  Parent ionizable lipid remaining in liver, Average: 17.02 nmol/g liver
[3]; Table 6
  Final Product % EE: 98%
  Final Product PDI: 0.07
  Final Product Z-avg: 73 nm

## CCCCCCCCCCN(C(=O)CCCN(C)C)C(CCCCCCCCC)CCCCCCC(F)(F)C(=O)OCC(CCCCCC)CCCCCCCC (stereo not drawn) [Compound 17, 2-Hexyldecyl 9-(N-decyl-4-(dimethylamino)butanamido)-2,2-difluorooctadecanoate]
[1]; Table 13
  Luc Activity: 5.52E+07 pg/g liver
[2]; Table 17, female mice (n = 4)
  Parent ionizable lipid remaining in liver, Average: 24.00 nmol/g liver
[2]; [5]
  Parent ionizable lipid remaining in liver, Average: 36.58 nmol/g liver
[3]; Table 6
  Final Product % EE: 99%
  Final Product PDI: 0.10
  Final Product Z-avg: 68 nm

## CCCCCCCCCCN(C(=O)CCCN(C)C)C(CCCCCCCCC)CCCCCCC(F)(F)C(=O)OC(CCCCC)CCCCC (stereo not drawn) [Compound 19, Undecan-6-yl 9-(N-decyl-4-(dimethylamino)butanamido)-2,2-difluorooctadecanoate]
[1]; Table 13
  Luc Activity: 1.25E+06 pg/g liver
[2]; Table 17, female mice (n = 4)
  Parent ionizable lipid remaining in liver, Average: 20.22 nmol/g liver
[3]; Table 6
  Final Product % EE: 99%
  Final Product PDI: 0.09
  Final Product Z-avg: 71 nm

## CCCCCCCCCCON(C(=O)CCCN(C)C)C(CCCCCCCCCC)CCCCCCC(F)(F)C(=O)OCCC(CCCCC)CCCCC (stereo not drawn) [Compound 39, 3-pentyloctyl 9-[N-(decyloxy)-4-(dimethylamino)butanamido]-2,2-difluorononadecanoate]
[1]; Table 14
  Luc Activity: 4.30E+06 pg/g liver
[2]; [5]
  Parent ionizable lipid remaining in liver, Average: 2.91 nmol/g liver
[3]; Table 7
  Final Product % EE: 98%
  Final Product PDI: 0.19
  Final Product Z-avg: 59 nm

## CCCCCCCCCCC(CCCCCCCC(=O)OCCC(CCCCC)CCCCC)N(CCCCCCCCC(=O)OCCC(CCCCC)CCCCC)C(=O)CCCCN(C)C (stereo not drawn) [Compound 65, 3-Pentyloctyl 9-(5-(dimethylamino)-N-(9-oxo-9-((3-pentyloctyl)oxy)nonyl)-pentanamido)-nonadecanoate]
[1]; Table 13
  Luc Activity: 3.88E+07 pg/g liver
[2]; Table 17, female mice (n = 4)
  Parent ionizable lipid remaining in liver, Average: 27.84 nmol/g liver
[3]; Table 6
  Final Product % EE: 98%
  Final Product PDI: 0.01
  Final Product Z-avg: 83 nm

## CCCCCCCCCCN(C(=O)CCCN(C)C)C(CCCCCCCCC)CC(=O)OCC(CCCCCC)CCCCCCCC (stereo not drawn) [Compound 32, 2-hexyldecyl 3-[N-decyl-4-(dimethylamino)-butanamido]dodecanoate]
[1]; Table 10
  Luc Activity: 3.07E+07 pg/g liver
[2]; [4]
  Parent ionizable lipid remaining in liver, Average: 21.66 nmol/g liver
[3]; Table 3
  Final Product % EE: 99%
  Final Product PDI: 0.02
  Final Product Z-avg: 85 nm

## CCCCCCCCCCC(CCCCCCCC(=O)OC(CCCCCC)CCCCCC)N(CCCCCCCCCC)C(=O)CCCN(C)C (stereo not drawn) [Compound 5, Tridecan-7-yl 9-(N-decyl-4-(dimethylamino)butanamido)nonadecanoate]
[1]; Table 13
  Luc Activity: 9.49E+07 pg/g liver
[2]; Table 17, female mice (n = 4)
  Parent ionizable lipid remaining in liver, Average: 49.53 nmol/g liver
[3]; Table 6
  Final Product % EE: 99%
  Final Product PDI: 0.05
  Final Product Z-avg: 68 nm

## CCCCCCCCCCC(CCCCC(=O)OCc1cc(CCCCCC)cc(CCCCCC)c1)N(CCCN(C)C)C(=O)CCCCCCCCC (stereo not drawn) [Compound 60, (3,5-dihexylphenyl)methyl 6-{N-[3-(dimethylamino)propyl]decanamido}hexadecanoate]
[1]; Table 10
  Luc Activity: 8.23E+06 pg/g liver
[2]; [4]
  Parent ionizable lipid remaining in liver, Average: 35.39 nmol/g liver
[3]; Table 3
  Final Product % EE: 99%
  Final Product PDI: 0.05
  Final Product Z-avg: 73 nm

## CCCCCCCCCCON(C(=O)CCCN(C)C)C(CCCCCCCCC)CCCCCCC(F)C(=O)OCCC(CCCCC)CCCCC (stereo not drawn) [Compound 38, 3-pentyloctyl 9-[N-(decyloxy)-4-(dimethylamino)butanamido]-2-fluorooctadecanoate]
[1]; Table 14
  Luc Activity: 2.13E+07 pg/g liver
[2]; [5]
  Parent ionizable lipid remaining in liver, Average: 3.14 nmol/g liver
[3]; Table 7
  Final Product % EE: 98%
  Final Product PDI: 0.17
  Final Product Z-avg: 65 nm

## CCCCCCCCCCC(CCCCC(=O)OCc1cc(CCCCCC)cc(CCCCCC)c1)N(CCCN(C)C)C(=O)C(CCCCCC)CCCCCCCC (stereo not drawn) [Compound 62, 3,5-Dihexylbenzyl 6-(N-(3-(dimethylamino)propyl)-2-hexyldecanamido)hexadecanoate]
[1]; Table 10
  Luc Activity: 7.84E+06 pg/g liver
[2]; [4]
  Parent ionizable lipid remaining in liver, Average: 20.17 nmol/g liver
[3]; Table 3
  Final Product % EE: 98%
  Final Product PDI: 0.08
  Final Product Z-avg: 67 nm

## CCCCCCCCCCC(CCCCCCC(F)(F)C(=O)OCCC(CCCCC)CCCCC)N(CCCCCCCC(=O)OCCC(CCCCC)CCCCC)C(=O)CCCN(C)C (stereo not drawn) [Compound 87, 3-pentyloctyl 9-[4-(dimethylamino)-N-{8-oxo-8-[(3-pentyloctyl)oxy]octyl}butanamido]-2,2-difluorononadecanoate]
[1]; Table 14
  Luc Activity: 1.18E+06 pg/g liver
[2]; [5]
  Parent ionizable lipid remaining in liver, Average: 3.23 nmol/g liver
[3]; Table 7
  Final Product % EE: 98%
  Final Product PDI: 0.05
  Final Product Z-avg: 78 nm
